The values that follow come from ChEMBL document CHEMBL1142042, “Nonpeptide alpha(v)beta3 antagonists: identification of potent, chain-shortened 7-oxo RGD mimetics” (Bioorg Med Chem Lett, 2005).

Data set [1] in a line: Oral bioavailability in dog (dose 1 mg/kg). The conditions noted are these: in vivo. The data set is classed as ADME, organism-based, Canis lupus familiaris.
The target in another data set is Integrin alpha-V/beta-3 (Homo sapiens, UniProt P05106+P06756). Description: Inhibition of 2(S)-(4-125I-benzenesulphonylamino)-3-4-[2-(5,6,7,8-tetrahydro- [1,8]naphthyridin-2-yl)-ethyl]-benzoylamino-propionic acid binding to alphaV-beta3 integrin. The data set is classed as protein-complex assay.
Chain of Integrin alpha-V/beta-3 (P05106 27-788 limits assumed): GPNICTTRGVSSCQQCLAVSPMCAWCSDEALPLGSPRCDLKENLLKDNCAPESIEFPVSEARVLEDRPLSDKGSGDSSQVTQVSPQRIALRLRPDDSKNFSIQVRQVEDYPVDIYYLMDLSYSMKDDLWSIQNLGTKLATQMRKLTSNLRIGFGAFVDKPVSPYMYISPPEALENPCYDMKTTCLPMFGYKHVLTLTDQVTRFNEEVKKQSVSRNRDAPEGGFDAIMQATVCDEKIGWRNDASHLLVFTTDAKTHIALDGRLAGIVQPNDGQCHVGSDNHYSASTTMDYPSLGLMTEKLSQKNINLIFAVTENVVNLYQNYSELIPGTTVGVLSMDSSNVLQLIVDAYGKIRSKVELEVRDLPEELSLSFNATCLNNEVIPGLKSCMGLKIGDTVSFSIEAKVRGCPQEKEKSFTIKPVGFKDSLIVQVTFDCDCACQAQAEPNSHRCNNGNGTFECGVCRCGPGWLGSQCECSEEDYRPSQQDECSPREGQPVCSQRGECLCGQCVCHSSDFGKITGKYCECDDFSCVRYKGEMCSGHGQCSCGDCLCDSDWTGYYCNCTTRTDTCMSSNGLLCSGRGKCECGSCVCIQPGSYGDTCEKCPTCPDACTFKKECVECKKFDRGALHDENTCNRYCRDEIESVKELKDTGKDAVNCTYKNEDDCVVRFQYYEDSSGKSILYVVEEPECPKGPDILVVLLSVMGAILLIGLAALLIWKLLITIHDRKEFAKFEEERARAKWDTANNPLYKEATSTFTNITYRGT
Chain of Integrin alpha-V/beta-3 (P06756 31-889 limits assumed): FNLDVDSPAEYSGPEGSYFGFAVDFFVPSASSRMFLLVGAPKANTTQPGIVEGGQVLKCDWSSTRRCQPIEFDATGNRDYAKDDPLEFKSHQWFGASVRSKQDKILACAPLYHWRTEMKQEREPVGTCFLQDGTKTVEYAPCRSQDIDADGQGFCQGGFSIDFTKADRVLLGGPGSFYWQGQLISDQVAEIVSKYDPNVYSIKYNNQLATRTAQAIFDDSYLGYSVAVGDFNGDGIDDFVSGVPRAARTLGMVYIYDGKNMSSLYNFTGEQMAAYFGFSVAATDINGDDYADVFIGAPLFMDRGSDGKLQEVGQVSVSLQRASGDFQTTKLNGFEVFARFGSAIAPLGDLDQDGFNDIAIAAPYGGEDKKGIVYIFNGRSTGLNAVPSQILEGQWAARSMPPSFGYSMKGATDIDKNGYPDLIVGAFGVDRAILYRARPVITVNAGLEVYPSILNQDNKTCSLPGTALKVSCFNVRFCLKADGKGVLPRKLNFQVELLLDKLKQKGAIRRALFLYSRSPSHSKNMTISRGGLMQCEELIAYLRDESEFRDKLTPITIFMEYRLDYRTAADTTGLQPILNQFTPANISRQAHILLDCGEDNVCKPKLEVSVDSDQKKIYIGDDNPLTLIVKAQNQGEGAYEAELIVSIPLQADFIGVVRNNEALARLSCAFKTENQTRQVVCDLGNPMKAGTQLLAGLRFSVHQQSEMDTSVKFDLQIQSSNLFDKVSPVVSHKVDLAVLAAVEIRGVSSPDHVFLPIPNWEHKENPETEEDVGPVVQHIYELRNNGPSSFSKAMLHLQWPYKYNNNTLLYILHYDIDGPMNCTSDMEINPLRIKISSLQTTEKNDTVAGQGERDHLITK
Chain of Integrin alpha-V/beta-3 (P06756 891-1048 limits assumed): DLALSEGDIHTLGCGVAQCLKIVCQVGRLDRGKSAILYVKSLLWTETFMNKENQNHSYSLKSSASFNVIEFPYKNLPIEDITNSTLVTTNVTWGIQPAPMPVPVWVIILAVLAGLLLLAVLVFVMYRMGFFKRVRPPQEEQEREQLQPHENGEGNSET
Data set [2] can be described thus: Clearance when dosed intravenously at 0.2 mpk to dogs; n = 2. Type of data set: ADME, organism-based, Canis lupus familiaris. The conditions noted are these: dog, in vivo, iv, 0.2 mg/kg.
The nature of data set [3]: Plasma half life when dosed orally at 1 mpk and intravenously at 0.2 mpk to dogs; n = 2. Type of data set: ADME, organism-based, Canis lupus familiaris. The conditions noted are these: dog.
The nature of data set [4]: In vitro inhibition of mouse osteoblast-like 1.8 cells transformation into osteoclasts. The data set is classed as functional.
A short description of data set [5]: Partition coefficient (logP). Type of data set: physicochemical. The conditions noted are these: octanol/water.

Usually bioavailability stands for the share of a dose that reaches the circulation, judged against a reference dose that is usually intravenous. Read a high bioavailability as much systemic uptake. By IC50 is commonly meant the concentration that gives 50% inhibition. The low end stands for inhibition by little substance, the high end for a need for much substance. As a reminder, the clearance is the volume of plasma or blood freed of the substance per unit of time. As a reminder, the half-life is the time needed for the level to fall by half in the phase considered. A low value points to rapid decline. As a reminder, the logP is the decadic logarithm of the partition coefficient of the neutral form, usually between octanol and water. In data set [1], `COc1ccc([C@@H](CCC[C@H](O)CCc2ccc3c(n2)NCCC3)CC(=O)O)cn1` displayed a bioavailability of 60%. Also, the IC50 came to 0.24 nM on Integrin alpha-V/beta-3 and 8 nM in data set [4]. Also, in data set [2], the clearance was determined as 2.5 mL/min/kg. In addition, the half-life in data set [3] was 6.1 h. Besides, the lipophilicity (logP) in data set [5] is 0.1.
Consider `COc1ccc([C@@H](CCCCCCc2ccc3c(n2)NCCC3)CC(=O)O)cn1`, for which the clearance in data set [2] is 4 mL/min/kg. In addition, the half-life in data set [3] was 9 h. Also, the IC50 in data set [4] was 39 nM.
Compound `COc1ccc([C@@H](CCCC(=O)CCc2ccc3c(n2)NCCC3)CC(=O)O)cn1` showed a bioavailability in data set [1] of 75%. Besides, the IC50 at Integrin alpha-V/beta-3 came to 0.16 nM; in data set [4], 12 nM. The clearance in data set [2] was determined as 6.7 mL/min/kg. This compound also gave a half-life in data set [3] of 7 h. The same compound had a logP in data set [5] of 0.
Regarding `COc1ccc([C@@H](CCC[C@@H](O)CCc2ccc3c(n2)NCCC3)CC(=O)O)cn1`, the values for the IC50 (on Integrin alpha-V/beta-3; in data set [4]) were 0.24 nM and 36 nM, respectively. The logP in data set [5] was found to be 0.
